Reference: the NIST ThermoML archive (doi:10.1021/je030117d)
± gives the expanded uncertainty stated by the source.

What was measured:
[1] = xn = mol fraction of the nth substance listed; settings: 298.15 K, 101.33 kPa, Liquid, Vibrating tube method
[2] = Liquid; for mass density: 298.15 K, 101.33 kPa, Vibrating tube method; for Normal boiling temperature: Ebulliometric method (Recirculating still)
[3] = refractive index (Na D-line) (dimensionless); settings: 298.15 K; 101.33 kPa; Liquid; Standard Abbe refractometry
[4] = excess molar enthalpy (molar enthalpy of mixing); xn = mol fraction of the nth substance listed; settings: 298.15 K, 101.33 kPa, Liquid, Calvet calorimetry

COC(C)=O [methyl ethanoate] + CCCCCCC
[1]
Settings | mass density [kg/m3]
x1 = 0.0676 | 686.77 ± 0.36
x1 = 0.1019 | 690.81 ± 0.37
x1 = 0.1594 | 698.12 ± 0.39
x1 = 0.2497 | 710.82 ± 0.42
x1 = 0.3137 | 721.1 ± 0.46
x1 = 0.4011 | 736.76 ± 0.49
x1 = 0.4829 | 753.42 ± 0.54
x1 = 0.5498 | 768.76 ± 0.59
x1 = 0.6215 | 786.97 ± 0.64
x1 = 0.6765 | 802.41 ± 0.69
x1 = 0.7204 | 815.61 ± 0.74
x1 = 0.7841 | 836.35 ± 0.79
x1 = 0.8342 | 854.72 ± 0.86
x1 = 0.8837 | 873.99 ± 0.92
x1 = 0.9248 | 891.52 ± 0.99
x1 = 0.9632 | 908.98 ± 1

CCCCC(=O)OC [methyl pentanoate] + CCCCCCC
[1]
Settings | mass density [kg/m3]
x1 = 0.0172 | 682.12 ± 0.74
x1 = 0.0613 | 689.72 ± 0.76
x1 = 0.1404 | 703.9 ± 0.77
x1 = 0.2074 | 716.09 ± 0.8
x1 = 0.2867 | 731.09 ± 0.82
x1 = 0.3552 | 744.33 ± 0.84
x1 = 0.4135 | 755.77 ± 0.86
x1 = 0.4931 | 771.88 ± 0.88
x1 = 0.5619 | 786.14 ± 0.91
x1 = 0.631 | 800.74 ± 0.93
x1 = 0.7038 | 816.52 ± 0.95
x1 = 0.7607 | 828.99 ± 0.98
x1 = 0.8392 | 846.84 ± 1
x1 = 0.9149 | 864.2 ± 1
x1 = 0.9531 | 873.23 ± 1.1
x1 = 0.9836 | 880.67 ± 1.1

COC=O [methyl methanoate]
Settings | Normal boiling temperature [°C] | mass density [kg/m3] | refractive index
[2] | 31.64 ± 0.2 | 966.18 ± 0.49 | –
[3] | – | – | 1.3412 ± 0.0008

COC=O [methyl methanoate] + CCCCCCC
Settings | excess molar enthalpy [kcal/mol] | mass density [kg/m3]
[1], x1 = 0.042 | – | 682.76 ± 0.3
[1], x1 = 0.1206 | – | 689.96 ± 0.33
[1], x1 = 0.2235 | – | 702.15 ± 0.38
[1], x1 = 0.3614 | – | 723.34 ± 0.44
[1], x1 = 0.4593 | – | 741.73 ± 0.51
[1], x1 = 0.5364 | – | 759.27 ± 0.59
[1], x1 = 0.6079 | – | 778.2 ± 0.66
[1], x1 = 0.6651 | – | 795.64 ± 0.78
[1], x1 = 0.7799 | – | 837.8 ± 0.87
[1], x1 = 0.8321 | – | 861.36 ± 1
[1], x1 = 0.8729 | – | 882.18 ± 1.2
[1], x1 = 0.911 | – | 904.19 ± 1.3
[1], x1 = 0.946 | – | 926.26 ± 1.4
[1], x1 = 0.9736 | – | 945.92 ± 1.6
[1], x1 = 0.9935 | – | 961.3 ± 1.6
[4], x1 = 0.0673 | 0.123 ± 0.00382 | –
[4], x1 = 0.1535 | 0.268 ± 0.00454 | –
[4], x1 = 0.2499 | 0.403 ± 0.0055 | –
[4], x1 = 0.3332 | 0.484 ± 0.00621 | –
[4], x1 = 0.4008 | 0.52 ± 0.00645 | –
[4], x1 = 0.4555 | 0.538 ± 0.00669 | –
[4], x1 = 0.5004 | 0.546 ± 0.00669 | –
[4], x1 = 0.5354 | 0.546 ± 0.00669 | –
[4], x1 = 0.5709 | 0.545 ± 0.00669 | –
[4], x1 = 0.6389 | 0.521 ± 0.00645 | –
[4], x1 = 0.6745 | 0.506 ± 0.00645 | –
[4], x1 = 0.7144 | 0.479 ± 0.00621 | –
[4], x1 = 0.7527 | 0.452 ± 0.00598 | –
[4], x1 = 0.794 | 0.412 ± 0.00574 | –
[4], x1 = 0.8313 | 0.363 ± 0.00526 | –
[4], x1 = 0.8721 | 0.303 ± 0.00502 | –
[4], x1 = 0.9068 | 0.234 ± 0.00502 | –
[4], x1 = 0.9426 | 0.157 ± 0.00502 | –
[4], x1 = 0.973 | 0.0807 ± 0.00502 | –

CCC(=O)OC [methyl propanoate] + CCCCCCC
[1]
Settings | mass density [kg/m3]
x1 = 0.064 | 687.65 ± 0.62
x1 = 0.1117 | 694.35 ± 0.64
x1 = 0.1561 | 700.97 ± 0.69
x1 = 0.2628 | 718.15 ± 0.74
x1 = 0.365 | 736.5 ± 0.8
x1 = 0.4343 | 750.1 ± 0.88
x1 = 0.5113 | 766.46 ± 0.94
x1 = 0.5683 | 779.43 ± 1
x1 = 0.6351 | 795.65 ± 1.1
x1 = 0.7017 | 812.9 ± 1.1
x1 = 0.7543 | 827.61 ± 1.2
x1 = 0.8136 | 845.12 ± 1.3
x1 = 0.8664 | 861.73 ± 1.4
x1 = 0.903 | 873.85 ± 1.4
x1 = 0.9689 | 896.98 ± 1.5

CCC(=O)OC [methyl propanoate]
Settings | Normal boiling temperature [°C] | mass density [kg/m3] | refractive index
[2] | 78.50 ± 0.2 | 908.59 ± 0.47 | –
[3] | – | – | 1.3745 ± 0.0008

CCCCC(=O)OC [methyl pentanoate]
Settings | mass density [kg/m3] | refractive index
[2] | 884.58 ± 0.46 | –
[3] | – | 1.3947 ± 0.0008

[2]
Settings | vapor or sublimation pressure [kPa]
364.75 K | 32.01 ± 0.11
365.85 K | 33.33 ± 0.11
366.98 K | 34.67 ± 0.12
368.03 K | 36 ± 0.12
369.05 K | 37.33 ± 0.12
370.1 K | 38.66 ± 0.12
371.03 K | 40.01 ± 0.12
371.97 K | 41.33 ± 0.12
372.92 K | 42.66 ± 0.13
373.81 K | 43.99 ± 0.13
374.7 K | 45.33 ± 0.13
375.56 K | 46.64 ± 0.13
376.4 K | 48.01 ± 0.13
377.18 K | 49.33 ± 0.13
378.01 K | 50.64 ± 0.13
378.82 K | 51.98 ± 0.14
379.59 K | 53.33 ± 0.14
380.33 K | 54.67 ± 0.14
381.1 K | 56 ± 0.14
381.82 K | 57.33 ± 0.14
382.51 K | 58.67 ± 0.14
383.29 K | 59.99 ± 0.15
383.95 K | 61.33 ± 0.15
384.62 K | 62.68 ± 0.15
385.25 K | 63.99 ± 0.15
385.95 K | 65.33 ± 0.15
386.57 K | 66.66 ± 0.16
387.18 K | 67.99 ± 0.16
387.84 K | 69.32 ± 0.16
388.44 K | 70.66 ± 0.16
389.08 K | 71.99 ± 0.16
389.65 K | 73.33 ± 0.16
390.24 K | 74.65 ± 0.16
390.82 K | 76 ± 0.17
391.39 K | 77.3 ± 0.17
391.94 K | 78.66 ± 0.17
392.5 K | 79.99 ± 0.17
393.04 K | 81.33 ± 0.17
393.61 K | 82.66 ± 0.17
394.12 K | 83.98 ± 0.18
394.65 K | 85.33 ± 0.18
395.16 K | 86.66 ± 0.18
395.69 K | 88 ± 0.18
396.2 K | 89.33 ± 0.18
396.7 K | 90.67 ± 0.19
397.18 K | 91.98 ± 0.19
397.67 K | 93.35 ± 0.19
398.2 K | 94.67 ± 0.19
398.65 K | 95.99 ± 0.19
399.15 K | 97.32 ± 0.19
399.59 K | 98.66 ± 0.2
400.07 K | 99.99 ± 0.2
400.54 K | 101.32 ± 0.2
401 K | 102.66 ± 0.2
401.45 K | 104.01 ± 0.2
401.91 K | 105.33 ± 0.2
402.3 K | 106.66 ± 0.21
402.75 K | 107.99 ± 0.21
403.2 K | 109.32 ± 0.21
403.62 K | 110.58 ± 0.21
404.06 K | 111.98 ± 0.21
404.45 K | 113.3 ± 0.22
404.88 K | 114.66 ± 0.22
405.31 K | 115.99 ± 0.22
405.71 K | 117.32 ± 0.22
406.12 K | 118.69 ± 0.22
406.52 K | 119.98 ± 0.22
406.91 K | 121.36 ± 0.23
407.3 K | 122.64 ± 0.23
407.7 K | 124 ± 0.23
408.08 K | 125.32 ± 0.23
408.49 K | 126.67 ± 0.23
408.85 K | 127.99 ± 0.23
409.23 K | 129.32 ± 0.23
409.62 K | 130.64 ± 0.24
409.98 K | 132.01 ± 0.24
410.35 K | 133.34 ± 0.24
410.71 K | 134.64 ± 0.24
411.07 K | 135.99 ± 0.24
411.44 K | 137.33 ± 0.25
411.8 K | 138.63 ± 0.25
412.15 K | 139.99 ± 0.25
412.49 K | 141.33 ± 0.25
412.85 K | 142.67 ± 0.25
413.21 K | 143.99 ± 0.25
413.55 K | 145.32 ± 0.26
413.89 K | 146.65 ± 0.26
414.22 K | 148 ± 0.26
414.55 K | 149.34 ± 0.26
414.91 K | 150.65 ± 0.26
415.23 K | 151.99 ± 0.27
415.57 K | 153.32 ± 0.27
415.87 K | 154.61 ± 0.27
416.21 K | 155.97 ± 0.27
416.55 K | 157.29 ± 0.27
416.87 K | 158.66 ± 0.27
417.18 K | 159.97 ± 0.28

CCCC(=O)OC [methyl butanoate]
Settings | Normal boiling temperature [°C] | mass density [kg/m3] | refractive index
[2] | 102.38 ± 0.2 | 892.52 ± 0.46 | –
[3] | – | – | 1.3852 ± 0.0008

CCCCCCC [heptane]
Settings | Normal boiling temperature [°C] | mass density [kg/m3] | refractive index
[2] | 98.20 ± 0.49 | 679.3 ± 0.45 | –
[3] | – | – | 1.3853 ± 0.0007

CCCC(=O)OC [methyl butanoate] + CCCCCCC
[1]
Settings | mass density [kg/m3]
x1 = 0.0337 | 684.36 ± 0.67
x1 = 0.0689 | 689.75 ± 0.68
x1 = 0.102 | 694.93 ± 0.7
x1 = 0.1531 | 703.25 ± 0.73
x1 = 0.2487 | 719.6 ± 0.76
x1 = 0.3261 | 733.58 ± 0.8
x1 = 0.3824 | 744.29 ± 0.84
x1 = 0.4586 | 759.5 ± 0.88
x1 = 0.5333 | 775.25 ± 0.93
x1 = 0.6085 | 791.88 ± 0.97
x1 = 0.6618 | 804.18 ± 1
x1 = 0.7161 | 817.1 ± 1.1
x1 = 0.7869 | 834.67 ± 1.1
x1 = 0.8394 | 848.24 ± 1.1
x1 = 0.8882 | 861.22 ± 1.2
x1 = 0.9255 | 871.41 ± 1.2

COC(C)=O [methyl ethanoate]
Settings | Normal boiling temperature [°C] | mass density [kg/m3] | refractive index
[2] | 56.70 ± 0.2 | 927.14 ± 0.47 | –
[3] | – | – | 1.3589 ± 0.0008
